Test results reported in patent US20250049930A1, “PROTAC MOLECULES TARGETING FOXP3 AND USES THEREOF” (CEDARS-SINAI MEDICAL CENTER, priority 2022, published 2025).
Residues, ends and D or L forms follow the SMILES beside them. *: point of attachment. X1 = O=C1CCC(N2C(=O)c3cccc(*)c3C2=O)C(=O)N1; PEG4 = NCCOCCOCCOCCOCCC(=O)O

Assays:
FoxP3 = target: T1, FoxP3 (Mus musculus, UniProt Q99JB6); assay: FoxP3 in CD4+ cells of mouse splenocytes treated in vitro, flow cytometry; type: cell-based
T1 construct: from tissue; host or cells: peripheral blood and spleen of mice
T1 sequence (Q99JB6 1-429): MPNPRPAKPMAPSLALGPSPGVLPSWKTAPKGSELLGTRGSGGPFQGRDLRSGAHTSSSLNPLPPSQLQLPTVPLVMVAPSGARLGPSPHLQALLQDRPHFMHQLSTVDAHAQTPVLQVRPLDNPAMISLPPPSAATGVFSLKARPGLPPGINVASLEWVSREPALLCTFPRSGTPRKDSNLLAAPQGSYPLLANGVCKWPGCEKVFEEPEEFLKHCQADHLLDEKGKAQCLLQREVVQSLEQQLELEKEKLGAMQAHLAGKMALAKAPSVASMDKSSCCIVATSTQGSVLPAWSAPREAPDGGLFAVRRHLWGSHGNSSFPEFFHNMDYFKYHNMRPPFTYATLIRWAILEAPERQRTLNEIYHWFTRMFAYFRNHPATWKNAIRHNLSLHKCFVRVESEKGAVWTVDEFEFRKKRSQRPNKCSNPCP
Protocol: FIGS. 2A-2E depict that a proteolysis-targeting chimera (PROTAC) targeting FoxP3 (PF) degraded FoxP3 in vitro and in vivo. P-FoxP3 forms a ternary complex with cereblon and FoxP3. Surface plasmon resonance (SPR) assay was used to measure the equilibrium dissociation constant (KD) for the ternary complex consisting of cereblon, P-FoxP3 and FoxP3 (FIG. 2A). SPR assay was used to measure the KD for the binary complex consisting of cereblon and P-FoxP3 (FIG. 2B). Mouse splenocytes were treated in vitro with varying PF concentrations and percent of CD4+ cells staining for intracellular FoxP3 was assessed by flow cytometry. (FIG. 2C). […] 72 hours later, FoxP3 positive CD4+ cells in peripheral blood and spleen were assessed by flow cytometry (FIG. 2D). FoxP3 positive CD4+ cells in peripheral blood were assessed by flow cytometry at various timepoints following PF administration (FIG. 2E). […]
To determine if PF results in the degradation of FoxP3, mouse splenocytes were treated in vitro with varying concentrations of PF and percent of CD4+ cells staining for intracellular FoxP3 was assessed by flow cytometry. […] 72 hours later, FoxP3 positive CD4+ cells in peripheral blood and spleen were assessed by flow cytometry. […] To understand the time course of FoxP3 decrease, serial blood draws were assessed after a single injection of PF (FIG. 2E). […]

RENCA cells = assay: RENCA cell growth in vitro; type: cell-based, mouse; conditions: 0.002, 0.02, 0.2, or 2 μM, 48 hours
Protocol: That is, the tumor in the P60 treated tumor grew at the same rate as the saline treated mice. Further, RENCA cells (20×10^4/well) were seeded in 12 well plates and treated with PF or PC at 0.002, 0.02, 0.2, or 2 μM. […] The first approach involved depleting CD8+ lymphocytes, which are known to mediate antitumor immunity.

FoxP3 in CD4+ cells (FoxP3; fresh mouse splenocytes cultured with IL-2, 1 μm P-FoxP3, 7 days, vs without P-FoxP3): degraded FoxP3 in CD4+ cells | percent of CD4+ cells staining for intracellular FoxP3 (FoxP3; mouse splenocytes treated in vitro with varying PF concentrations): decreased in a dose-dependent manner
SMILES: CSCC[C@H](NC(=O)[C@H](C)NC(=O)[C@H](Cc1ccccc1)NC(=O)[C@H](Cc1ccccc1)NC(=O)[C@@H]1CCCN1C(=O)[C@H](Cc1c[nH]c2ccccc12)NC(=O)[C@H](CCSC)NC(=O)[C@H](CCCCN)NC(=O)[C@H](CCCNC(=N)N)NC(=O)[C@H](Cc1ccccc1)NC(=O)[C@H](CO)NC(=O)[C@H](CCC(N)=O)NC(=O)[C@H](Cc1ccccc1)NC(=O)[C@H](CC(=O)O)NC(=O)[C@H](CCCNC(=N)N)NC(=O)CCOCCOCCOCCOCCNc1cccc2c1C(=O)N(C1CCC(=O)NC1=O)C2=O)C(=O)O (stereo partly drawn) [PF, Pomalidomide-PEG4-RDFQSFRKMWPFFAM] ({X1-PEG4}-RDFQSFRKMWPFFAM-OH)
RENCA growth in vitro (cell count) (RENCA cells): did not alter RENCA growth in vitro
